# Target: T1, b-Raf(V600E) (Homo sapiens, UniProt P15056, V600E)
# T1 construct: made in house
# Assay: Raf/Mek Amplified Luminescence Proximity Homogeneous Assay (Alpha Screen), b-Raf(V600E)
# Type: biochemical
# Settings: mutant b-Raf(V600E), read-out: mut-b-RAF (IC50 in uM)
# Summary of the method: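 IC50 derived by non-linear regression from AlphaScreen luminescence of phospho-MEK (anti-p-MEK antibody). Reaction: ~4 pM b-Raf(V600E), ~10 nM kinase-dead biotinylated Mek, 60 min compound pre-incubation, then 3 h with ATP at room temperature in pH 7.5 Tris/MgCl2/DTT buffer, quenched with EDTA.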
# T1 sequence (P15056 whole entry V600E): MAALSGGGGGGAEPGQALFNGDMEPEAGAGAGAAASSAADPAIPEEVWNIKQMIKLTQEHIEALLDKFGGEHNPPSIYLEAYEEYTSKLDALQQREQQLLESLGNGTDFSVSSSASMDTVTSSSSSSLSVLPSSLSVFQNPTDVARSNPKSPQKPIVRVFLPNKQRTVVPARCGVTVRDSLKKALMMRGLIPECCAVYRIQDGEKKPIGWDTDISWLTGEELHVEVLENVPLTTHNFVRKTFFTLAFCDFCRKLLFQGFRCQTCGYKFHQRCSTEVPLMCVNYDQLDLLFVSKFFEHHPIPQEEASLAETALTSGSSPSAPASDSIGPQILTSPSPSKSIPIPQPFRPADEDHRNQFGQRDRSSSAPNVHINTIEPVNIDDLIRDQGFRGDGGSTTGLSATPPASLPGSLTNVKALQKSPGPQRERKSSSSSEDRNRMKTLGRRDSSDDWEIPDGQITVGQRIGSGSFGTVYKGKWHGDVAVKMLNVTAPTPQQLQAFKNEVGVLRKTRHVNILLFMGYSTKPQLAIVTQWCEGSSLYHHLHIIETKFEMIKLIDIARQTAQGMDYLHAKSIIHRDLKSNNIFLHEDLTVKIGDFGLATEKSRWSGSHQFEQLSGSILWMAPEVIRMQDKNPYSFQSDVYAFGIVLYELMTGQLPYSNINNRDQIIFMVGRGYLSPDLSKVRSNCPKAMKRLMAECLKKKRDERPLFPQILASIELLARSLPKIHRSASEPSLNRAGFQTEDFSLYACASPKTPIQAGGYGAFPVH
row,IC50 [nM],Compound
1,3.8,"COc1cc(-c2[nH]c(-c3ccc(F)cc3)nc2-c2ccncc2F)cnc1N [Compound 93, 5-(2-(4-fluorophenyl)-4-(3-fluoropyridin-4-yl)-1H-imidazol-5-yl)-3-methoxypyridin-2-amine]"
2,3,"COc1cc(Nc2nccc(-c3[nH]c(C)nc3-c3cnc(N)c(OC)c3)n2)ccn1 [Compound 244, 4-(4-(6-amino-5-methoxypyridin-3-yl)-2-methyl-1H-imidazol-5-yl)-N-(2-methoxypyridin-4-yl)pyrimidin-2-amine]"
3,387,"Nc1ccc(-c2[nH]c(-c3ccccc3)nc2-c2ccncc2)c(F)n1 [Compound 37, 6-fluoro-5-(2-phenyl-4-(pyridin-4-yl)-1H-imidazol-5-yl)pyridin-2-amine]"
4,349,"COc1ncc(-c2[nH]c(-c3ccccc3)nc2-c2ccncc2)cc1N [Compound 42, 2-methoxy-5-(2-phenyl-4-(pyridin-4-yl)-1H-imidazol-5-yl)pyridin-3-amine]"
5,58,"Nc1n[nH]c2cc(-c3[nH]c(-c4ccccc4)nc3-c3ccncc3)ccc12 [Compound 24, 6-(2-phenyl-4-(pyridin-4-yl)-1H-imidazol-5-yl)-1H-indazol-3-amine]"
6,1,"COc1cc(-c2nc(-c3cc(F)cc(F)c3)[nH]c2-c2ccncc2)cnc1N [Compound 78, 5-(2-(3,5-difluorophenyl)-5-(pyridin-4-yl)-1H-imidazol-4-yl)-3-methoxypyridin-2-amine]"
7,89,"COc1nc(-c2sc(-c3ccccc3)nc2-c2ccncc2)cnc1N [Compound 77, 3-methoxy-5-(2-phenyl-4-(pyridin-4-yl)thiazol-5-yl)pyrazin-2-amine]"
8,14.3,"COc1cc(-c2nc(-c3ccc(F)cc3)sc2-c2ccncc2)cnc1N [Example 16, 5-(2-(4-fluorophenyl)-5-(pyridin-4-yl)thiazol-4-yl)-3-methoxypyridin-2-amine]"
9,405,"COc1cc(-c2[nH]c(-c3ccc(F)cc3)nc2C2CCOCC2)cnc1N [Example 10, 5-(2-(4-fluorophenyl)-5-(tetrahydro-2H-pyran-4-yl)-1H-imidazol-4-yl)-3-methoxypyridin-2-amine]"
10,54,"c1ccc(-c2nc(-c3ccncc3)c(-c3ccc4cc[nH]c4c3)[nH]2)cc1 [Compound 33, 6-(2-phenyl-4-(pyridin-4-yl)-1H-imidazol-5-yl)-1H-indole]"
11,0.4,"COc1cc(-c2[nH]c(-c3ccccc3Cl)nc2-c2ccncc2)cnc1N [Compound 135, 5-(2-(2-chlorophenyl)-4-(pyridin-4-yl)-1H-imidazol-5-yl)-3-methoxypyridin-2-amine]"
12,13.7,"COc1cc(-c2oc(-c3ccccc3)nc2-c2ccncc2)cnc1N [Compound 89, 3-methoxy-5-(2-phenyl-4-(pyridin-4-yl)oxazol-5-yl)pyridin-2-amine]"
13,3,"CC(=O)c1cc(-c2[nH]c(-c3ccc(F)cc3)nc2-c2ccncc2)cnc1N [Compound 177, 1-(2-amino-5-(2-(4-fluorophenyl)-4-(pyridin-4-yl)-1H-imidazol-5-yl)pyridin-3-yl)ethanone]"
14,0.5,"COc1cc(-c2[nH]c(-c3ccc(F)cc3)nc2-c2ccnc(Nc3ccc(N4C[C@@H](C)O[C@@H](C)C4)nc3)n2)cnc1N [Compound 187, 4-(5-(6-amino-5-methoxypyridin-3-yl)-2-(4-fluorophenyl)-1H-imidazol-4-yl)-N-(6-((2S,6R)-2,6-dimethylmorpholino)-pyridin-3-yl)pyrimidin-2-amine]"
15,0.3,"COc1cc(-c2[nH]c(-c3ccccc3)nc2-c2ccnc(N[C@H]3CCCN(S(=O)(=O)c4ccc(Cl)cc4)C3)n2)cnc1N [Compound 62, (S)-4-(5-(6-amino-5-methoxypyridin-3-yl)-2-phenyl-1H-imidazol-4-yl)-N-(1-(4-chlorophenylsulfonyl)piperidin-3-yl)pyrimidin-2-amine]"
16,3,"Fc1ccc(-c2nc(-c3ccncc3)c(-c3cnc4[nH]ccc4c3)[nH]2)cc1 [Compound 144, 5-(2-(4-fluorophenyl)-4-(pyridin-4-yl)-1H-imidazol-5-yl)-1H-pyrrolo[2,3-b]pyridine]"
17,1.7,"COc1cc(-c2[nH]c(-c3ccccc3F)nc2-c2ccncc2)cnc1N [Compound 137, 5-(2-(2-fluorophenyl)-4-(pyridin-4-yl)-1H-imidazol-5-yl)-3-methoxypyridin-2-amine]"
18,737,"COc1cc(-c2[nH]c(-c3ccc(F)cc3)nc2-c2cnc(N)c(OC)c2)ccn1 [Compound 112, 5-(2-(4-fluorophenyl)-5-(2-methoxypyridin-4-yl)-1H-imidazol-4-yl)-3-methoxypyridin-2-amine]"
19,0.3,"COCC(=O)N[C@@H](C)CNc1nccc(-c2[nH]c(C(C)(C)C)nc2-c2cnc(N)c(OC)n2)n1 [Example 7, (S)—N-(1-(4-(4-(5-amino-6-methoxypyrazin-2-yl)-2-tert-butyl-1H-imidazol-5-yl)pyrimidin-2-ylamino)propan-2-yl)-2-methoxyacetamide]"

row,IC50 [nM],Compound
1,1,"COc1cc(-c2nc(C(C)(C)C)[nH]c2-c2ccncc2)cnc1N [Compound 128, 5-(2-tert-butyl-5-(pyridin-4-yl)-1H-imidazol-4-yl)-3-methoxypyridin-2-amine]"
2,0.01,"COC(=O)N[C@@H](C)CNc1nccc(-c2[nH]c(C(C)(C)C)nc2-c2cnc(N)c(OC(F)F)c2)n1 [Compound 265, (S)-methyl 1-(4-(4-(6-amino-5-(difluoromethoxy)pyridin-3-yl)-2-tert-butyl-1H-imidazol-5-yl)pyrimidin-2-ylamino)propan-2-ylcarbamate]"
3,2,"COCC(=O)N[C@@H](C)CNc1nccc(-c2oc(-c3ccc(F)cc3)nc2-c2cnc(N)c(OC)n2)n1 [Compound 217, (S)-N-(1-(4-(4-(5-amino-6-methoxypyrazin-2-yl)-2-(4-fluorophenyl)oxazol-5-yl)pyrimidin-2-ylamino)propan-2-yl)-2-methoxyacetamide]"
4,0.3,"COCC(=O)NCCNc1nccc(-c2nc(-c3ccc(F)cc3)[nH]c2-c2cnc3[nH]cc(Cl)c3c2)n1 [Compound 160, N-(2-(4-(5-(3-chloro-1H-pyrrolo[2,3-b]pyridin-5-yl)-2-(4-fluorophenyl)-1H-imidazol-4-yl)pyrimidin-2-ylamino)ethyl)-2-methoxyacetamide]"
5,60.6,"COc1cc(-c2[nH]c(-c3ccc(F)cc3)nc2-c2ccncc2Cl)cnc1N [Compound 94, 5-(4-(3-chloropyridin-4-yl)-2-(4-fluorophenyl)-1H-imidazol-5-yl)-3-methoxypyridin-2-amine]"
6,1,"COCC(=O)N[C@@H](C)CNc1nccc(-c2oc(-c3ccc(F)cc3)nc2-c2cnc(N)c(OC)c2)n1 [Compound 214, (S)-N-(1-(4-(4-(6-amino-5-methoxypyridin-3-yl)-2-(4-fluorophenyl)oxazol-5-yl)pyrimidin-2-ylamino)propan-2-yl)-2-methoxyacetamide]"
7,382,"Fc1ccc(-c2nc(-c3ccncc3)c(-c3cnc4c(c3)OCCN4)[nH]2)cc1 [Compound 142, 7-(2-(4-fluorophenyl)-4-(pyridin-4-yl)-1H-imidazol-5-yl)-3,4-dihydro-2H-pyrido[3,2-v][1,4]oxazine]"
8,259,"COc1nc(-c2[nH]c(C)nc2-c2ccncc2)cnc1N [Compound 50, 3-methoxy-5-(2-methyl-4-(pyridin-4-yl)-1H-imidazol-5-yl)pyrazin-2-amine]"
9,9.9,"CC[C@@H](C)Nc1nccc(-c2nc(-c3ccc(F)cc3)[nH]c2-c2cnc(N)c(OC)c2)n1 [Compound 181, (R)-4-(5-(6-amino-5-methoxypyridin-3-yl)-2-(4-fluorophenyl)-1H-imidazol-4-yl)-N-sec-butylpyrimidin-2-amine]"
10,1.3,"COC(=O)c1cccc(-c2nc(-c3ccncc3)c(-c3cnc(N)c(OC)c3)[nH]2)c1 [Compound 101, methyl 3-(5-(6-amino-5-methoxypyridin-3-yl)-4-(pyridin-4-yl)-1H-imidazol-2-yl)benzoate]"
11,0.4,"COC(=O)N[C@@H](C)CNc1nccc(-c2nc(C(C)(C)C)[nH]c2-c2cnc(N)c(C(C)=O)c2)n1 [Compound 235, (S)-methyl-1-(4-(5-(5-acetyl-6-aminopyridin-3-yl)-2-tert-butyl-1H-imidazol-4-yl)pyrimidin-2-ylamino)propan-2-ylcarbamate]"
12,1.2,"COc1cc(-c2[nH]c(-c3cc(C)ccc3F)nc2-c2ccncc2)cnc1N [Compound 139, 5-(2-(2-fluoro-5-methylphenyl)-4-(pyridin-4-yl)-1H-imidazol-5-yl)-3-methoxypyridin-2-amine]"
13,1.7,"COc1cc(-c2[nH]c(-c3cccc(OC)c3F)nc2-c2ccncc2)cnc1N [Compound 116, 5-(2-(2-fluoro-3-methoxyphenyl)-4-(pyridin-4-yl)-1H-imidazol-5-yl)-3-methoxypyridin-2-amine]"
14,489,"Nc1ncc(-c2[nH]c(-c3ccccc3)nc2-c2ccncc2)cn1 [Compound 25, 5-(2-phenyl-4-(pyridin-4-yl)-1H-imidazol-5-yl)pyrimidin-2-amine]"
15,0.1,"COc1cc(-c2[nH]c(-c3ccccc3)nc2-c2ccnc(NCCNC(C)=O)n2)cnc1N [Compound 67, N-(2-(4-(5-(6-amino-5-methoxypyridin-3-yl)-2-phenyl-1H-imidazol-4-yl)pyrimidin-2-ylamino)ethyl)acetamide]"
16,0.9,"COc1cc(-c2[nH]c(-c3ccc4[nH]ccc4c3)nc2-c2ccncc2)cnc1N [Compound 178, 5-(2-(1H-indol-5-yl)-4-(pyridin-4-yl)-1H-imidazol-5-yl)-3-methoxypyridin-2-amine]"
17,0.3,COc1cc(-c2nc(C(C)(C)C)[nH]c2-c2ccnc(NC[C@H](C)O)n2)cnc1N [Example 6]
18,59.9,"COc1cc(-c2[nH]c(-c3ccccc3)nc2-c2ccnc(N[C@@H]3CCCNC3)n2)cnc1N [Compound 65, (R)-4-(5-(6-amino-5-methoxypyridin-3-yl)-2-phenyl-1H-imidazol-4-yl)-N-(piperidin-3-yl)pyrimidin-2-amine]"
